# Experimental data: patent EP0680339B1, “ECTOPARASITICIDAL FORMULATION” (priority 1993, dated 1994)
# What was measured:
# [1] = Example 6, degree of translocation: diazinon levels in wool and skin scrapings; assay type: in vivo, sheep; settings: for DIAZINON (PPM) - WHOLE WOLL BELLY-LINE MEAN / DIAZINON (PPM) - WHOLE WOLL MIDLINE MEAN: Example 6 formulation, 3mL per kg
# Experimental: A 3 year old merino was shorn, weighed and treated immediately with the diazinon spray-on. It had not received any insecticide treatment for 12 months. The sheep weighed 37 kg and was treated with 110mL of the product. A wide band was applied from high on the neck, behind the ears, to the butt of the tail at a dosage rate of 3mL per kg bodyweight.
# The animal was hand restrained during treatment and placed under cover in a pen with mesh floor and sides for the duration of the trial.
# During and after treatment, the sheep had no contact with other treated animals and was not exposed to any rain.
# On advice from the State Chemistry Laboratory, Department of Agriculture, Victoria, approximately 2cm square scrapings of wool and skin were taken as follows:
# The values (PPM diazinon) are reported on a whole wool basis.
# The approximate concentration in wool grease can be calculated on the basis of the average wool grease content of the wool is 18.4% w/w ie., multiply the individual results by a factor of 5.4.
# sheep body louse D. ovis = assay: Example 3, varying concentration of active: lice counts on sheep; assay type: in vivo, Damalinia ovis
# Experimental: Testing for ectoparasite infestation was carried out by counting the number of parasites present in 20 partings taken on each side of the sheep (40 partings in total).
# In order to determine the minimum effective concentration of active agent possible upon application of 150 mL/50 kg sheep, the following formulations were prepared: […]
# For each of Examples 3A-E, the treatments were applied immediately after shearing along the backline in 4-6 strips (depending on the volume to be applied. Details are as follows:
# Treatments were applied using the NZ Protector dial-a-dose drench/pour-on gun.
# Once treated, each group was penned separately in electrified paddocks where they were kept for the duration of the trial.
# Lice counts were performed pre-shearing 7, 14, 21, 28, 35 and 42 days after treatment using the 20 partings per side technique.
# Percentage reduction in lice counts was calculated using the change in lice counts for the control group as a correction factor, using the formula given in example 1.
smiles,measurement,setting,value
CCOP(=S)(OCC)Oc1cc(C)nc(C(C)C)n1 [Diazinon],DIAZINON (PPM) - WHOLE WOLL (MEAN VALUES) BELLY-LINE LEFT,[1]; 1 day post treatment,407 PPM
same,DIAZINON (PPM) - WHOLE WOLL (MEAN VALUES) BELLY-LINE RIGHT,[1]; 1 day post treatment,190 PPM
same,DIAZINON (PPM) - WHOLE WOLL (MEAN VALUES) MIDLINE LEFT,[1]; 1 day post treatment,808 PPM
same,DIAZINON (PPM) - WHOLE WOLL (MEAN VALUES) MIDLINE RIGHT,[1]; 1 day post treatment,330 PPM
same,DIAZINON (PPM) - WHOLE WOLL BELLY-LINE MEAN,[1]; 1 day post treatment,298 PPM
same,DIAZINON (PPM) - WHOLE WOLL MIDLINE MEAN,[1]; 1 day post treatment,569 PPM
same,DIAZINON (PPM) - WHOLE WOLL (MEAN VALUES) BELLY-LINE LEFT,[1]; 3 days post treatment,185 PPM
same,DIAZINON (PPM) - WHOLE WOLL (MEAN VALUES) BELLY-LINE RIGHT,[1]; 3 days post treatment,112 PPM
same,DIAZINON (PPM) - WHOLE WOLL (MEAN VALUES) MIDLINE LEFT,[1]; 3 days post treatment,496 PPM
same,DIAZINON (PPM) - WHOLE WOLL (MEAN VALUES) MIDLINE RIGHT,[1]; 3 days post treatment,323 PPM
same,DIAZINON (PPM) - WHOLE WOLL BELLY-LINE MEAN,[1]; 3 days post treatment,148.5 PPM
same,DIAZINON (PPM) - WHOLE WOLL MIDLINE MEAN,[1]; 3 days post treatment,410 PPM
same,DIAZINON (PPM) - WHOLE WOLL (MEAN VALUES) BELLY-LINE LEFT,[1]; 7 days post treatment,287 PPM
same,DIAZINON (PPM) - WHOLE WOLL (MEAN VALUES) BELLY-LINE RIGHT,[1]; 7 days post treatment,216 PPM
same,DIAZINON (PPM) - WHOLE WOLL (MEAN VALUES) MIDLINE LEFT,[1]; 7 days post treatment,503 PPM
same,DIAZINON (PPM) - WHOLE WOLL (MEAN VALUES) MIDLINE RIGHT,[1]; 7 days post treatment,237 PPM
same,DIAZINON (PPM) - WHOLE WOLL BELLY-LINE MEAN,[1]; 7 days post treatment,251.2 PPM
same,DIAZINON (PPM) - WHOLE WOLL MIDLINE MEAN,[1]; 7 days post treatment,370 PPM
same,"diazinon in whole wool, belly-line right rump",[1]; Day 1,53 PPM
same,"diazinon in the wool grease, belly-line right rump","[1]; Day 1, whole wool value multiplied by 5.4",286 PPM
same,eradication of the sheep body louse D. ovis,sheep body louse D. ovis; 10 mg/kg (0.33% w/w),failed to eradicate
same,eradication of the sheep body louse D. ovis,sheep body louse D. ovis; 15 mg/kg (0.5% w/w),failed to eradicate
